{"source": "patent US20030166673A1", "about": "“Medicines for the prevention and treatment of neurodegenerative diseases” (priority 2001, published 2003)", "system": "vacuolized neurons in the PC/RS cortex (MK-801-induced neuronopathy)", "test": "Inhibitory effect on MK-801-induced neurodegeneration (number of vacuolized neurons)", "assay_type": "in vivo, mice (Std-ddY male)", "procedure": "The pharmacological test was carried out according to the method of D. F. Wozniak, et al. [Brain Research, Vol. 707, pp 165-178 (1996)].\nThe cerebrum was cut transversely from the anterior termination at approximately 4 mm to the posterior termination, and then embedded in cold polymerized resin (Technovit7100, manufactured by Kulzer in Germany). The slices containing the PC/RS cortex were obtained at four Anterior-Posterior levels at intervals of 300 μm from the exposed section of the block, and at each level two slices (3 μm in thickness) were consecutively obtained. The histological change (on Hematoxylin and eosin stain specimen) and the number of vacuolized neurons (on Nissl stain specimen) were observed by a light microscope for each 4 slices, respectively.", "key": {"[1]": {"details": "individual mouse, Compound A 1 mg/kg p.o. 30 min before MK-801 1 mg/kg s.c., 5 h after MK-801, PC/RS cortex"}}, "note": "“And” between values parts separate entries of the source, which are not always exact repeats. Identical values can stand only once.", "data": [{"smiles": "COc1cccc(-c2nccc3[nH]c(=O)c(-c4noc(C)n4)cc23)c1", "note": "[Compound A, 3-(5-Methyl-1,2,4-oxadiazol-3-yl)-5-(3-methoxyphenyl)-1,6-naphthyridin-2(1H)-one]", "values": [{"measurement": "Vacuolization, Mean(/slice) Group", "setting": "group mean of three mice, Compound A 1 mg/kg p.o. + MK-801 1 mg/kg s.c., 5 h", "result": "4.3 /slice"}, {"measurement": "Vacuolization, Slice No. 1", "setting": "[1]", "result": "0 (2×) and 20"}, {"measurement": "Vacuolization, Slice No. 2", "setting": "[1]", "result": "0 (2×) and 12"}, {"measurement": "Vacuolization, Slice No. 3", "setting": "[1]", "result": "0 and 10 and 2"}, {"measurement": "Vacuolization, Slice No. 4", "setting": "[1]", "result": "0 and 5 and 2"}, {"measurement": "Vacuolization, Mean(/slice) Individual", "setting": "mean of 4 slices per mouse, Compound A 1 mg/kg p.o. + MK-801 1 mg/kg s.c., 5 h", "result": "0.0 /slice and 11.8 /slice and 1.0 /slice"}, {"measurement": "retardation or inhibition of neurodegeneration in the PC/RS cortex induced by MK-801 (in words)", "setting": "mice, Compound A 1 mg/kg p.o. before MK-801 1 mg/kg s.c.", "result": "potent retardation or inhibition of neurodegeneration"}]}]}
